Data reported in publication PMC7662393, “Comprehensive Characterization of Linalool-HP-β-Cyclodextrin Inclusion Complexes” (Molecules, 2020).
≈ marks a conversion by molar mass, not a printed value. Like-named read-outs stand apart in the source and are kept apart here.

Key:
[1] = set-up: method as in PMID 25298799; conditions: RAMEB; cited from earlier work
[2] = set-up: method as in PMID 25298799; conditions: CRYSMEB; cited from earlier work
[3] = set-up: method as in PMID 25298799; conditions: HP-β-CDs; cited from earlier work
[4] = hydroxyl group at C3; no reference or method printed; cited from earlier work
[5] = Phase solubility study of linalool complexation with α-CDs; format: physicochemical
Description: (§1) The study of linalool solubility in the presence of CDs was carried out according to the method described by Higuchi and Connors in 1965 with slight modifications. CDs were dissolved in buffered solutions at different pHs: 3.5, 5.5 (100 mmol L^−1 sodium acetate buffer), 6.5, 7.0 (100 mmol L^−1 sodium phosphate buffer) and 8.5 (100 mmol L^−1 sodium borate buffer). The α- and HP-β-CDs were prepared up to 100 mmol L^−1. However, β-CDs were prepared up to 15 mmol L^−1, since this is their limit of aqueous solubility.
(§2) A saturating concentration of linalool was added to each CDs solution and they were kept in an ultrasound bath for 60 min in the dark, at 25 °C, until equilibrium was reached. Subsequently, the solutions were filtered through a 0.45 µm nylon membrane filter (Chromafil, Macherey-Nagel, Düren, Germany) to remove excess linalool.
(§3) Once filtered, the solutions were diluted with ethanol until reach ethanol 80% (solution:ethanol, 20:80, v:v) to quantify by gas chromatography-mass spectrometry (GC-MS) the linalool concentration in each solution. Phase solubility diagrams were made in triplicate.
(§4) The quantification of linalool was carried out by using a Shimadzu GC-QP 2010 (Kyoto, Japan) gas chromatographer combined with a mass spectrometer. Helium was used as carrier gas, at a flow rate of 0.5 mL min^−1. A ω-WAX 250 fused silica supelco column (30 m × 0.25 mm × 0.25 µm thickness), was used. The temperature conditions were as follows: initial temperature at 70 °C, raised to 160 °C at 4 °C min^−1, raised to 280 °C at 30 °C min^−1, and maintained finally at 280 °C for 6 min. Injector temperature was 250 °C and injector mode was Split 1:20.
(§5) The peak area of each sample was used for linalool quantification (mmol L^−1), by interpolating in the calibration curve obtained using a standard of linalool, defined by equation: Area = […] [linalool (mmol L^−1)] and (R^2 = 0.9989) for linalool concentration from 0.0 to 0.5 mmol L^−1.
(§6) Kc between linalool and CDs was calculated from the slope of the phase solubility profile and the solubility of linalool in aqueous solution (S0) by using Equation (1):(1) Kc (Lmol^−1)=slope/S0(1−slope)
(§7) CE is the ratio between dissolved complex and free CDs concentration. […] was calculated by using Equation (2):(2) CE=[disolved−complex]/[CDs]=S0∗Kc
(§8) The molar ratio (MR) linalool:CDs, was calculated using CE values with Equation (3). (3) linalool:CDs=1:(1+1/CE)

[6] = set-up: method as in doi:10.1002/ffj.3197; conditions: JECFA (FAO/WHO); cited from earlier work
[7] = Aqueous solubility of linalool (S0) from phase solubility study, ultrasound equilibrium; format: physicochemical; conditions: for solubility at 60 min: read-out: Recovery aqueous solubility (S0)
Description: as §1, §2, §3, §4, §5

[8] = Phase solubility study of linalool complexation with β-CDs; format: physicochemical
Description: as §1, §2, §3, §4, §5, §6, §7, §8

[9] = Phase solubility study of linalool complexation with HP-β-CDs (ultrasound); format: physicochemical
Description: as §1, §2, §3, §4, §5, §6, §7, §8

[10] = Phase solubility of linalool with HP-β-CDs by microwave irradiation (MWI); format: physicochemical; conditions: pH 7.0
Description: The encapsulation of linalool with HP-β-CDs by using MWI was carried out following the method described by Hernández-Sánchez et al. in 2017 [32]. Aqueous solutions of HP-β-CDs (100 mL, 0–100 mmol L^−1) were irradiated with microwave (LG Grill Wavedom, LG Electronics Las Rozas, Spain), at 700 W for 30 s, at 10 s intervals, until reaching a temperature of 70 °C in the solution. Later on, linalool was added to each aqueous solution, in a molar ratio of 1:1 and then, were irradiated again for 30 s at 10 s intervals, until reaching again 70 °C. Subsequently, the samples were shaken and kept for 12 h in dark sealed vials at 25 °C, before dividing them into two groups. After that, the first group, named 24 h MWI, was filtered using 0.45 µm nylon membrane filter (Chromafil, Macherey-Nagel). The second group, named 48 h MWI, were irradiated again, until reaching 70 °C, and maintain 12 h in the dark before they were filtered through a 0.45 µm nylon filter to remove linalool excess. Once filtered, both groups of samples were diluted with ethanol (20:80, v:v) until the GC-MS quantification of the linalool. All measurements were made in triplicate.
as §4, §5

Compound: O=C(O)/C=C/c1ccc(O)cc1 [coumaric acid]
- Complexation efficiency (CE) [1]: 2.57
- Complexation efficiency (CE) [2]: 1.89
- Complexation efficiency (CE) [3]: 2.30

Compound: C=CCc1ccc(O)c(OC)c1 [eugenol]
- Complexation efficiency (CE) [3]: 2.81

Compound: COc1cc(/C=C/C(=O)O)ccc1O [ferulic acid]
- Complexation efficiency (CE) [1]: 1.79

Compound: C=CC(C)(O)CCC=C(C)C (stereo not drawn) [linalool, 3,7-dimethyl-1,6-octadien-3-ol]
- pKa [4]: 18.46
- Complexation efficiency (CE) ([5]; pH 3.5): 0.159
- Complexation constant (KC) ([5]; pH 3.5, 25 °C): 17 ± 6 L/mol
- Complexation efficiency (CE) ([5]; pH 5.5): 0.226
- Complexation constant (KC) ([5]; pH 5.5, 25 °C): 25 ± 4 L/mol
- Complexation efficiency (CE) ([5]; pH 6.5): 0.987
- Complexation constant (KC) ([5]; pH 6.5, 25 °C): 121 ± 9 L/mol
- Complexation efficiency (CE) ([5]; pH 7.0): 1.090
- Complexation constant (KC) ([5]; pH 7.0, 25 °C): 148 ± 12 L/mol
- Complexation efficiency (CE) ([5]; pH 8.5): 0.979
- Complexation constant (KC) ([5]; pH 8.5, 25 °C): 105 ± 8 L/mol
- Allowable daily intake (ADI) [6]: 0–0.5 mg kg^−1 of body weight/day
- solubility at 60 min ([7]; aqueous buffer, thermodynamic from solid, pH 6.5, 25 °C): 8.16 ± 0.11 mM (≈ 1260 µg/mL)
- solubility at 60 min ([7]; aqueous buffer, thermodynamic from solid, pH 7.0, 25 °C): 7.37 mM (≈ 1140 µg/mL)
- Recovery aqueous solubility (S0) ([7]; pH 3.5, 25 °C): 9.34 ± 0.20 mM
- solubility at 60 min ([7]; pH 5.5, 25 °C): 9.05 ± 0.16 mM (≈ 1400 µg/mL)
- Recovery aqueous solubility (S0) ([7]; pH 7.0, 25 °C): 7.37 ± 0.03 mM
- solubility at 60 min ([7]; pH 8.5, 25 °C): 9.33 ± 0.13 mM (≈ 1440 µg/mL)
- solubility at 60 min ([7]; sodium acetate buffer, pH 3.5, 25 °C): 9.34 mM (≈ 1440 µg/mL)
- Complexation efficiency (CE) ([8]; pH 3.5): 0.261
- Complexation constant (KC) ([8]; pH 3.5, 25 °C): 28 ± 4 L/mol
- Complexation efficiency (CE) ([8]; pH 5.5): 0.670
- Complexation constant (KC) ([8]; pH 5.5, 25 °C): 74 ± 5 L/mol
- Complexation efficiency (CE) ([8]; pH 6.5): 0.743
- Complexation constant (KC) ([8]; pH 6.5, 25 °C): 91 ± 4 L/mol
- Complexation efficiency (CE) ([8]; pH 7.0): 1.776
- Complexation constant (KC) ([8]; pH 7.0, 25 °C): 241 ± 26 L/mol
- Complexation efficiency (CE) ([8]; pH 8.5): 0.149
- Complexation constant (KC) ([8]; pH 8.5, 25 °C): 16 ± 5 L/mol
- Linalool concentration solved ([9]; 100 mM HP-β-CDs, US, pH 7.0): 96.72 mM
- Linalool concentration solved, US relative to MWI ([9]; 100 mM HP-β-CDs, pH 7.0): 7 fold
- Increase in solubility of linalool ([9]; HP-β-CDs, US as energy source, volume 100 mL, pH 7.0): 13.1 fold
- Complexation efficiency (CE) ([9]; HP-β-CDs, pH 3.5): 0.411
- Complexation constant (KC) ([9]; HP-β-CDs, pH 3.5, 25 °C): 44 ± 6 L/mol
- Complexation efficiency (CE) ([9]; HP-β-CDs, pH 5.5): 0.443
- Complexation constant (KC) ([9]; HP-β-CDs, pH 5.5, 25 °C): 49 ± 7 L/mol
- Complexation efficiency (CE) ([9]; HP-β-CDs, pH 6.5): 1.836
- Complexation constant (KC) ([9]; HP-β-CDs, pH 6.5, 25 °C): 225 ± 14 L/mol
- Complexation efficiency (CE) ([9]; HP-β-CDs, pH 7.0): 6.788
- Complexation constant (KC) ([9]; HP-β-CDs, pH 7.0, 25 °C): 921 ± 21 L/mol
- Complexation efficiency (CE) ([9]; HP-β-CDs, pH 8.5): 5.215
- Complexation constant (KC) ([9]; HP-β-CDs, pH 8.5, 25 °C): 559 ± 17 L/mol
- KC value for HP-β-CDs relative to that for β-CDs ([9]; neutral pH): 4 fold
- Linalool concentration solved ([10]; 100 mM HP-β-CDs, MWI): 13.61 mM
- Increase in solubility of linalool ([10]; HP-β-CDs, MWI as energy source, volume 100 mL): 18.2 fold
- solubility thermodynamic ([10]; aqueous solution without HP-β-CDs (S0), 25 °C, water, thermodynamic from solid, MWI): 0.75 mM (≈ 116 µg/mL)
